“And” between values parts separate entries of the source, which are not always exact repeats. Equal values may be shown once.
How the values were obtained:
S. epidermidis MSSE [1] = test: Gentamycin Disk Diffusion test; assay type: cell-based, Staphylococcus epidermidis; settings: disk method
E. Coli-ESBL negative [2] = test: Gentamycin Disk Diffusion test; assay type: cell-based, Escherichia coli; settings: disk method
E. Coli-ESBL positive [3] = test: Gentamycin Disk Diffusion test; assay type: cell-based, Escherichia coli; settings: disk method
[4] = tested on: K. pneumoniae-ESBL positive; test: Gentamycin Disk Diffusion test; assay type: cell-based, Klebsiella pneumoniae; settings: disk method
[5] = tested on: Enterococcus faecalis-vancomycin^r; test: Gentamycin Disk Diffusion test; assay type: cell-based; settings: disk method
Enterobacter aerogenes [6] = test: Gentamycin Disk Diffusion test; assay type: cell-based; settings: disk method
[7] = tested on: Enterobacter cloacae W25161^r; test: Gentamycin Disk Diffusion test; assay type: cell-based; settings: disk method
[8] = tested on: A. baumannii-amikacin^s, meropenem^s; test: Gentamycin Disk Diffusion test; assay type: cell-based, Acinetobacter baumannii; settings: disk method
[9] = tested on: K. pneumoniae-ESBL negative; test: Gentamycin Disk Diffusion test; assay type: cell-based, Klebsiella pneumoniae; settings: disk method
[10] = tested on: A. baumannii-amikacin^r, meropenem^r; test: Gentamycin Disk Diffusion test; assay type: cell-based, Acinetobacter baumannii; settings: disk method
S. aureus MSSA [11] = test: Gentamycin Disk Diffusion test; assay type: cell-based, Staphylococcus aureus; settings: disk method
A. baumannii R16998^r = test: Gentamycin Disk Diffusion test; assay type: cell-based, Acinetobacter baumannii; settings: disk method
S. aureus MRSA [12] = test: Gentamycin Disk Diffusion test; assay type: cell-based, Staphylococcus aureus; settings: disk method
S. epidermidis MRSE [13] = test: Gentamycin Disk Diffusion test; assay type: cell-based, Staphylococcus epidermidis; settings: disk method
E. Coli B3095141^r [14] = test: Gentamycin Disk Diffusion test; assay type: cell-based, Escherichia coli; settings: disk method
[15] = tested on: Pseudomonas aeruginosa ATCC 27853; settings: Gram negative reference strain
[16] = tested on: A. baumannii-amikacin^r, meropenem^r; settings: Gram negative clinical isolate
[17] = tested on: Acinetobacter baumannii ATCC 19606; settings: Gram negative reference strain
[18] = tested on: Enterobacter cloacae W25161; settings: Gram negative clinical isolate
[19] = tested on: Proteus mirabilis ATCC 7002; settings: Gram negative reference strain
[20] = tested on: Staphylococcus aureus ATCC 24213; settings: Gram positive reference strain
[21] = tested on: P. aeruginosa-gentamicin^s, meropenem^s; settings: Gram negative clinical isolate
S. aureus MSSA [22] = settings: Gram positive clinical isolate
[23] = tested on: Escherichia coli ATCC 25922; settings: Gram negative reference strain
[24] = tested on: K. pneumoniae-ESBL negative; settings: Gram negative clinical isolate
[25] = tested on: K. pneumoniae-ESBL positive; settings: Gram negative clinical isolate
[26] = tested on: A. baumannii-amikacin^s, meropenem^s; settings: Gram negative clinical isolate
HIV-1 IIIB = test: microbe, parasite or virus in culture; assay type: cell-based; settings: Table 4; read-out: EC50 IIIB
Procedure: (§1) Inhibition of HIV-1 cell replication was tested using the cMAGI assay, which is based on the ability of HIV-1 TAT to transactivate the expression of an integrated β-galactosidase reporter gene driven by the HIV-LTR (B. Chackeria et al., J. Virol., (1997) 71, 3932; Collins et al., Nat. Med. (2000) 6, 475). The β-galactosidase reporter is modified to remain localized in the nucleus where it can be detected with the X-gal (5-bromo-4-chloro-3indoyl-β-D-galactopyranoside) substrate as an intense nuclear stain within a few days of infection.
(§2) HIV-1 isolates were propagated by subculture in MT2 cells (Litovchick et al. (2001) supra). Aliquots of cell-free culture supernatants were used as viral inoculum. PAACs were dissolved in the RPMI 1640 medium. Cytotoxicity determinations were carried out in MT2 cells by trypan blue exclusion assay. Viral inhibition was determined by incubating MT2 or cMAGI HIV-1 reporter cells with 0.2-0.5 multiplicity of infection of HIV-1 wild type or resistant virus for 4 days at 37° C. in the presence or absence of various concentrations of pAACs. HIV-1 infection of cMAGI cells was determined by counting the number of HIV-1-infected cells (stained blue). The cytopathic effects of the viral infection of MT2 cells were also analyzed by microscopic assessment of syncytium formation.

[27] = tested on: Enterococcus faecalis-vancomycin^r; settings: clinical isolate, Table 7
Enterobacter cloacae = settings: Gram negative clinical isolate
[28] = tested on: P. aeruginosa-gentamicin^r, meropenem^r; settings: Gram negative clinical isolate
E. Coli-ESBL positive [29] = settings: Gram negative clinical isolate
in vitro = assay type: cell-based; settings: human; Table 4; tryphan blue exclusion assay for MT2 cells; read-out: Cytotoxicity
Procedure: Cytotoxicity of the various pAACs was determined using the trypan blue exclusion assay. In brief, a sample of the cell suspension was diluted 1:1 (v/v) with 0.4% trypan blue and the cells were counted using a hemocytometer. Results are expressed as the percentage of dead cells.
as §2

Enterobacter aerogenes [30] = settings: Gram negative clinical isolate
S. aureus MRSA [31] = settings: Gram positive clinical isolate
[32] = tested on: Klebsiella pneumoniae ATCC 13883; settings: Gram negative reference strain
S. epidermidis MSSE [33] = settings: Gram positive clinical isolate
A. baumannii R16998 = settings: Gram negative clinical isolate
HIV-1 Ba-L = assay type: cell-based; settings: Table 4
Procedure: as §1, §2

[34] = tested on: HIV-1 Protease resistant virus; assay type: cell-based; settings: Table 4; read-out: EC50 Protease^Res
Procedure: as §1, §2

[35] = tested on: HIV-1 clinical isolate Clade C; assay type: cell-based; settings: Table 4; read-out: EC50 Clade C
Procedure: as §1, §2

[36] = tested on: HIV-1 AZT resistant virus; assay type: cell-based; settings: Table 4; read-out: EC50 AZT^Res
Procedure: as §1, §2

[37] = tested on: HIV-1 clinical isolate Clade A; assay type: cell-based; settings: Table 4; read-out: EC50 Clade A
Procedure: as §1, §2

[38] = tested on: HIV-1 NeoR6 resistant virus; assay type: cell-based; settings: read-out: EC50 NeoR6^Res; Table 4
Procedure: as §1, §2

E. Coli-ESBL negative [39] = settings: Gram negative clinical isolate
E. Coli B3095141^r [40] = settings: clinical isolate, Table 7
S. epidermidis MRSE [41] = settings: Gram positive clinical isolate
CXCR4 = molecular target: T1, CXCR4 (Homo sapiens, UniProt P61073); test: Competition with 12G5 mAb binding to CXCR4 on MT2 cells (flow cytometry)
T1 construct: incubated at 4° C. with anti-CXCR4 mAb, 12G5, conjugated to phycoerithrine (PE); endogenous in cells; host or cells: MT2 cells
T1 sequence (P61073 whole entry): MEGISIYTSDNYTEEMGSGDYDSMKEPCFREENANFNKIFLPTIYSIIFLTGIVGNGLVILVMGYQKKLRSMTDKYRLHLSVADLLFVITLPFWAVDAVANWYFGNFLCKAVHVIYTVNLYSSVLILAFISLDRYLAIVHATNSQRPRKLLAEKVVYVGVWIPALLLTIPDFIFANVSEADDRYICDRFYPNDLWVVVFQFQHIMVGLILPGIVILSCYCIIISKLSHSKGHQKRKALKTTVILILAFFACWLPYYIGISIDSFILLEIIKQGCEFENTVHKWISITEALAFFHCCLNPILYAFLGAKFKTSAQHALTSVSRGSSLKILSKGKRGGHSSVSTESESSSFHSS
Procedure: Interaction of pAACs and arginine peptides with CXCR4 coreceptor: Interactions of pAACs and arginine-peptides with CXCR4 were determined by flow cytometry (FACS-Scan, Becton Dickinson) as previously described (Litovich (2001) supra). In brief, 0.5×10^6 MT2 cells were washed with ice-cold PBS containing 0.1% sodium azide (wash buffer) and were incubated at 4° C. with anti-CXCR4 mAb, 12G5, conjugated to phycoerithrine (PE), in the absence or presence of different concentrations of pAACs and arginine peptides. After 30 minutes of incubation, the cells were washed with ice-cold wash buffer and fixed in PBS containing 1% paraformaldehyde. Non-specific fluorescence was assessed using an isotype control. For each sample 10,000 events were acquired. Data were analyzed and processed using CellQuest™ software (Becton Dickinson).

Gentamycin
Gentamycin (disk): resistance or sensitivity of the tested strain (S. epidermidis MSSE [1]): s (sensitivity of the tested strain (disk method diameter ≧15 millimeters, equivalent to a MIC ≦4 mg/liter)) | Gentamycin (disk): resistance or sensitivity of the tested strain (E. Coli-ESBL negative [2]): s (sensitivity of the tested strain (disk method diameter ≧15 millimeters, equivalent to a MIC ≦4 mg/liter)) | Gentamycin (disk): resistance or sensitivity of the tested strain (E. Coli-ESBL positive [3]): r (resistance of the tested strain (disk method diameter ≦12 millimeters, equivalent to a MIC ≧8 mg/liter)) | Gentamycin (disk): resistance or sensitivity of the tested strain [4]: r (resistance of the tested strain (disk method diameter ≦12 millimeters, equivalent to a MIC ≧8 mg/liter)) | Gentamycin (disk): resistance or sensitivity of the tested strain [5]: r (resistance of the tested strain (disk method diameter ≦12 millimeters, equivalent to a MIC ≧8 mg/liter)) | Gentamycin (disk): resistance or sensitivity of the tested strain (Enterobacter aerogenes [6]): r (resistance of the tested strain (disk method diameter ≦12 millimeters, equivalent to a MIC ≧8 mg/liter)) | Gentamycin (disk): resistance or sensitivity of the tested strain [7]: r (resistance of the tested strain (disk method diameter ≦12 millimeters, equivalent to a MIC ≧8 mg/liter)) | Gentamycin (disk): resistance or sensitivity of the tested strain [8]: r (resistance of the tested strain (disk method diameter ≦12 millimeters, equivalent to a MIC ≧8 mg/liter)) | Gentamycin (disk): resistance or sensitivity of the tested strain [9]: s (sensitivity of the tested strain (disk method diameter ≧15 millimeters, equivalent to a MIC ≦4 mg/liter)) | Gentamycin (disk): resistance or sensitivity of the tested strain [10]: r (resistance of the tested strain (disk method diameter ≦12 millimeters, equivalent to a MIC ≧8 mg/liter)) | Gentamycin (disk): resistance or sensitivity of the tested strain (S. aureus MSSA [11]): r (resistance of the tested strain (disk method diameter ≦12 millimeters, equivalent to a MIC ≧8 mg/liter)) | Gentamycin (disk): resistance or sensitivity of the tested strain (A. baumannii R16998^r): r (resistance of the tested strain (disk method diameter ≦12 millimeters, equivalent to a MIC ≧8 mg/liter)) | Gentamycin (disk): resistance or sensitivity of the tested strain (S. aureus MRSA [12]): s (sensitivity of the tested strain (disk method diameter ≧15 millimeters, equivalent to a MIC ≦4 mg/liter)) | Gentamycin (disk): resistance or sensitivity of the tested strain (S. epidermidis MRSE [13]): s (sensitivity of the tested strain (disk method diameter ≧15 millimeters, equivalent to a MIC ≦4 mg/liter)) | Gentamycin (disk): resistance or sensitivity of the tested strain (E. Coli B3095141^r [14]): r (resistance of the tested strain (disk method diameter ≦12 millimeters, equivalent to a MIC ≧8 mg/liter))

CC(=O)N[C@H](CCCNC(=N)N)C(=O)N[C@H](CCCNC(=N)N)C(=O)N[C@H](CCCNC(=N)N)C(=O)N[C@H](CCCNC(=N)N)C(=O)N[C@H](CCCNC(=N)N)C(=O)N[C@H](CCCNC(=N)N)C(=O)N[C@H](CCCNC(=N)N)C(=O)N[C@H](CCCNC(=N)N)C(=O)N[C@H](CCCNC(=N)N)C(=O)NC[C@H]1O[C@H](O[C@H]2[C@H](O)[C@@H](O)[C@H](N)C[C@@H]2N)[C@H](N)[C@@H](O)[C@@H]1O [Compound 13, D-Arg-9-mer-neamine]
Minimum Inhibitory Concentration [15]: 96.0 mg/liter and 38.55 μM | Minimum Inhibitory Concentration [16]: 96.0 mg/liter and 38.55 μM | Minimum Inhibitory Concentration [17]: 16.0 mg/liter and 6.40 μM | Minimum Inhibitory Concentration [18]: 24.0 mg/liter and 9.64 μM | Minimum Inhibitory Concentration [19]: 8.0 mg/liter and 3.20 μM | Minimum Inhibitory Concentration [20]: 2.0 mg/liter and 0.80 μM | Minimum Inhibitory Concentration [21]: 48.0 mg/liter and 19.28 μM | Minimum Inhibitory Concentration (S. aureus MSSA [22]): 1.5 mg/liter and 0.60 μM | Minimum Inhibitory Concentration [23]: 6.0 mg/liter and 2.40 μM | Minimum Inhibitory Concentration [24]: 3.0 mg/liter and 1.20 μM | Minimum Inhibitory Concentration [25]: 3.0 mg/liter and 1.20 μM | Minimum Inhibitory Concentration [26]: 12.0 mg/liter and 4.8 μM | EC50 (HIV-1 IIIB): 2300 ± 500 nM | Minimum Inhibitory Concentration [27]: 64.0 mg/liter and 25.70 μM | Minimum Inhibitory Concentration (Enterobacter cloacae): 8.0 mg/liter and 3.20 μM | Minimum Inhibitory Concentration [28]: 96.0 mg/liter and 38.55 μM | Minimum Inhibitory Concentration (E. Coli-ESBL positive [29]): 8.0 mg/liter and 3.20 μM | CC50 (in vitro): 150000 nM | Minimum Inhibitory Concentration (Enterobacter aerogenes [30]): 16 mg/liter and 6.40 μM | Minimum Inhibitory Concentration (S. aureus MRSA [31]): 1.5 mg/liter and 0.60 μM | Minimum Inhibitory Concentration [32]: 1.5 mg/liter and 0.60 μM | Minimum Inhibitory Concentration (S. epidermidis MSSE [33]): 0.5 mg/liter and 0.20 μM | Minimum Inhibitory Concentration (A. baumannii R16998): 128.0 mg/liter and 51.41 μM | EC50 (HIV-1 Ba-L): > 50000 nM | EC50 [34]: 2400 ± 400 nM | EC50 [35]: 2700 ± 500 nM | EC50 [36]: 10400 ± 2700 nM | EC50 [37]: 5100 ± 2900 nM | EC50 [38]: 3000 ± 1000 nM | Minimum Inhibitory Concentration (E. Coli-ESBL negative [39]): 6.0 mg/liter and 2.40 μM | Minimum Inhibitory Concentration (E. Coli B3095141^r [40]): 6.0 mg/liter and 2.40 μM | Minimum Inhibitory Concentration (S. epidermidis MRSE [41]): 0.5 mg/liter and 0.20 μM | inhibition at 2 µM (CXCR4; read-out: % Inhibition of 12G5 mAb binding to CXCR4, 2 μM): 67.3% | inhibition at 10 µM (CXCR4; read-out: % Inhibition of 12G5 mAb binding to CXCR4, 10 μM): 100%

Source: patent publication US20060166867A1, “Novel conjugates of polysaccharides and uses thereof” (priority 2003, published 2006)
